From US9273042B2, “5-amino[1,4]thiazines as BACE 1 inhibitors” (Hoffmann-La Roche Inc., priority 2012, dated 2016)

Target: BACE1 (Homo sapiens (Human), UniProt P56817)
Test: Cellular Aβ-lowering assay (Abeta 40 AlphaLISA)
Assay type: cell-based
Settings: HEK293 APP cells, 18-20 hrs incubation, Aβ 40 in culture supernatants; read-out: BACE1 cell act. Aβ40, IC50
Protocol: Cellular Aβ-Lowering Assay:
The Abeta 40 AlphaLISA Assay can be used. The HEK293 APP cells were seeded in 96 well Microtiter plates in cell culture medium (Iscove's, plus 10% (v/v) fetal bovine serum, penicillin/streptomycin) to about 80% confluency and the compounds were added at a 3× concentration in ⅓ volume of culture medium (final DMSO concentration was kept at 1% v/v). After 18-20 hrs incubation at 37° C. and 5% CO2 in a humidified incubator, the culture supernatants were harvested for the determination of Aβ 40 concentrations using Perkin-Elmer Human Amyloid beta 1-40 (high specificity) Kit (Cat#AL275C).
In a Perkin-Elmer White Optiplate-384 (Cat#6007290), 2 ul culture supernatants were combined with 2 μl of a 10× AlphaLISA Anti-hAβAcceptor beads+Biotinylated Antibody Anti-Aβ 1-40 Mix (50 μg/mL/5 nM). After 1 hour room temperature incubation, 16 μl of a 1.25× preparation of Streptavidin (SA) Donor beads (25 μg/mL) were added and incubated for 30 minutes in the Dark. Light Emission at 615 nm was then recorded using EnVision-Alpha Reader. Levels of Aβ 40 in the culture supernatants were calculated as percentage of maximum signal (cells treated with 1% DMSO without inhibitor). The IC50 values were calculated using the Excel XLfit software.

Chain of BACE1 (P56817 46-501): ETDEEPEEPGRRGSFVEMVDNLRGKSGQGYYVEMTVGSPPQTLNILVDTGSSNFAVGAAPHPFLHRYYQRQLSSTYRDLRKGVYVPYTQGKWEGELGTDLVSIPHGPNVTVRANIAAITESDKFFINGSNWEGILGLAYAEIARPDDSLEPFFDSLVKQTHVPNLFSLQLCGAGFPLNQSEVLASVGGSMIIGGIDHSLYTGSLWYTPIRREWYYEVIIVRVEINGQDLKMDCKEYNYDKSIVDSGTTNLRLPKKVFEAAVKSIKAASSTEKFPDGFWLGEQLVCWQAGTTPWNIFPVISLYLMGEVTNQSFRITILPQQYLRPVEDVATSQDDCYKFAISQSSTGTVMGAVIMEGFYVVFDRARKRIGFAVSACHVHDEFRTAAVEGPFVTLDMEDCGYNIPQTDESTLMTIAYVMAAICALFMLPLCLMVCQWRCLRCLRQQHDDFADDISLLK

IC50 [nM]	Structure (SMILES)
11	C[C@@]1(c2cc(NC(=O)c3ccc(C#N)cn3)ccc2F)CSCC(N)=N1 [Example 1, (R)—N-(3-(5-amino-3-methyl-3,6-dihydro-2H-1,4-thiazin-3-yl)-4-fluorophenyl)-5-cyanopicolinamide]
8.2	C[C@@]1(c2cc(NC(=O)c3ccc(C#N)cn3)ccc2F)CS(=O)(=O)CC(N)=N1 [Example 2, 5-Cyano-pyridine-2-carboxylic acid [3-((R)-5-amino-3-methyl-1,1-dioxo-1,2,3,6-tetrahydro-1λ6-[1,4]thiazin-3-yl)-4-fluoro-phenyl]-amide]
6.1	C[C@@]1(c2cc(NC(=O)c3ccc(Cl)cn3)ccc2F)CS(=O)(=O)CC(N)=N1 [Example 3, 5-Chloro-pyridine-2-carboxylic acid [3-((R)-5-amino-3-methyl-1,1-dioxo-1,2,3,6-tetrahydro-1λ6-[1,4]thiazin-3-yl)-4-fluoro-phenyl]-amide]
5.7	C[C@@]1(c2cc(NC(=O)c3ccc(OC(F)F)cn3)ccc2F)CS(=O)(=O)CC(N)=N1 [Example 4, 5-Difluoromethoxy-pyridine-2-carboxylic acid [3-((R)-5-amino-3-methyl-1,1-dioxo-1,2,3,6-tetrahydro-1λ6-[1,4]thiazin-3-yl)-4-fluoro-phenyl]-amide]
0.2	CC1(C)C(N)=N[C@](C)(c2cc(NC(=O)c3ccc(C#N)cn3)ccc2F)CS1(=O)=O [Example 6, 5-Cyano-pyridine-2-carboxylic acid [3-((R)-5-amino-3,6,6-trimethyl-1,1-dioxo-1,2,3,6-tetrahydro-1λ6-[1,4]thiazin-3-yl)-4-fluoro-phenyl]-amide]
1	C[C@@]1(c2cc(NC(=O)c3ccc(C#N)cn3)ccc2F)CS(=O)(=O)C2(CCCC2)C(N)=N1 [Example 9, 5-Cyano-pyridine-2-carboxylic acid [3-((R)-10-amino-8-methyl-6,6-dioxo-6λ6-thia-9-aza-spiro[4.5]dec-9-en-8-yl)-4-fluoro-phenyl]-amide]
